According to US9908826B2, “Synthetic method” (University Court of the University of St. Andrews, priority 2014, dated 2018):

Tests used:
human oestrogen receptor [1] = target: T1, human oestrogen receptor (Homo sapiens, UniProt P03372); assay: recombinant yeast oestrogen screen (YES) assay; format: cell-based
T1 construct: expressed in transfected cells; host or cells: recombinant yeast (hER yeast strain developed by Glaxo Welcome)
T1 sequence (P03372 1-595): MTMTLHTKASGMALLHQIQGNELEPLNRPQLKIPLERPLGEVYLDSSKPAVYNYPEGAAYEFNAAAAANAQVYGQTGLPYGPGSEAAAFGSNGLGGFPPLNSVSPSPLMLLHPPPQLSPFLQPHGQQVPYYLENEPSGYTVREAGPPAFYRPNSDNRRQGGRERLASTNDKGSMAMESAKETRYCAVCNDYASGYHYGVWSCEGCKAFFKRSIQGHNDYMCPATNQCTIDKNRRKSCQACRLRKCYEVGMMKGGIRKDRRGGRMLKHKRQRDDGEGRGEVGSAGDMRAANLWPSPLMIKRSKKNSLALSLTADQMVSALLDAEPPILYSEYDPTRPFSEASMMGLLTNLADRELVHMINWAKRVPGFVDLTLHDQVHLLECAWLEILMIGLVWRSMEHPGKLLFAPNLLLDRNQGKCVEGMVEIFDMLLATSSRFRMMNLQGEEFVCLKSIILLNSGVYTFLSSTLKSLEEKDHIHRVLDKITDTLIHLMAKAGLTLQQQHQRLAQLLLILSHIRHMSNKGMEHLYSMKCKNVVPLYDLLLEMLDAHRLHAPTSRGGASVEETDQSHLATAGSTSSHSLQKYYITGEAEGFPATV
Source text: In order to test our hypothesis that 3-nonylphenol might show less oestrogenicity than either the linear or the 4-nonylphenol, we have carried out a yeast oestrogen screen (YES) assay which is specific for oestradiol mimics.
The recombinant hER yeast strain was developed by Glaxo Welcome and details of the yeast oestrogen screen have been described previously (Routledge and Sumpter, 1996).
In brief, yeast cells were transfected with the human oestrogen receptor gene together with expression plasmids; the oestrogen response element and the lac-Z gene encoding the enzyme β-galactosidase. The yeast cells were incubated in medium containing the test chemical and the chromogenic substrate, […] (CPRG), and active ligands induced β-gal expression. The β-galactosidase secreted into the medium causes the yellow CPGR to change into a red product, and this is measurable by absorbance.
The medium components were prepared and the standard assay procedure was followed.^32 Chemicals were serially diluted in ethanol and 10 μl volumes were transferred to 96-well flat-bottom plates where the ethanol was allowed to evaporate to dryness. Then, 200 μl medium containing CPRG and yeast (final cell number of 5×10^5 cells/ml) was added to each well. Included with every assay was a negative control, ethanol, and a positive control, 17 β-oestradiol (stock solution of 17 β-oestradiol (2×10^−7 mol dm^−3) serially diluted in ethanol to achieve final concentrations of 1×10^−8 mol dm^−3 to 4.88×10^−12 mol dm^−3 in the wells).
The absorbance values were corrected for cell density using the following equation: Corrected value=chemical540nm−(chemical620nm−ethanol blank620nm).
All chemicals were tested in duplicate and each YES was carried out at least three times.

human oestrogen receptor [2] = target: T1, human oestrogen receptor; details: studied before, reference 13; cited from earlier work
[3] = tested on: male Japanese Medaka fish; details: post-hatching stages of development, references 12, 13, 28; cited from earlier work
[4] = YES assay, initial 3-NP sample (Pd/C, contains small amounts of ring hydrogenated product)
[5] = second sample, [RhCl(PPh3)3] hydrogenation, no ring hydrogenation products

## CCCCCCCCCc1cccc(O)c1 [3-NP, 3-Nonylphenol]
Human oestrogen receptor [1]; YES assay (conclusion)
  oestrogenicity relative to 17 β-oestradiol (times as oestrogenic): ~10^−6 times
Human oestrogen receptor [1]; YES assay, FIG. 1 and FIG. 2
  oestrogenic response in the YES assay (in words): full dose response curve
Human oestrogen receptor [1]; YES assay, 3-nonylphenol prepared by ethenolysis of cardanol (conclusion)
  times less potent in oestrogenicity than the banned substance (4-nonylphenol): at least 150 times
Human oestrogen receptor [1]; [4]
  potency, fold less than 4-NP (mixed isomers): ~300 fold
  potency, fold less than 17 β-oestradiol: approximately 1.5×10^6 fold
Human oestrogen receptor [1]; YES assay, tested 1×10^−3 to 5×10^−7 mol dm^−3, initial sample (Pd/C hydrogenation)
  reduction in oestrogenic activity on moving the linear alkyl group from the 4- to the 3-position (vs 4-n-NP): 10 fold
Human oestrogen receptor [1]; oestrogenicity studies, summary statement
  orders of magnitude less oestrogenic than 4-nonylphenol: 2 orders of magnitude
Human oestrogen receptor [1]; [5]
  increase in oestrogenicity of second sample versus initial sample: 2 fold
  oestrogenicity, times lower than that of 4-NP mixed isomers: 150 times

## CCCCCCCCCc1ccc(O)cc1 [4-n-NP, 4-nonylphenol]
Human oestrogen receptor [2]
  oestrogenicity compared with commercial 4-nonylphenol with mixed alkyl chains: lower oestrogenicity

## CCCCCCCCCc1ccc(O)cc1 [4-NP, 4-nonylphenol]
[3]
  endocrine disrupting effect: induce testes-ova
